These compounds were tested against Epidermal growth factor receptor (Homo sapiens, UniProt P00533) (assay: Kinase Enzyme Assay). Conditions: 37 °C.
Description: EGFR kinase assay was perform using Nunc MaxiSorp purchased from Nalge Nunc Interantional.

Epidermal growth factor receptor, sequence (P00533 whole entry): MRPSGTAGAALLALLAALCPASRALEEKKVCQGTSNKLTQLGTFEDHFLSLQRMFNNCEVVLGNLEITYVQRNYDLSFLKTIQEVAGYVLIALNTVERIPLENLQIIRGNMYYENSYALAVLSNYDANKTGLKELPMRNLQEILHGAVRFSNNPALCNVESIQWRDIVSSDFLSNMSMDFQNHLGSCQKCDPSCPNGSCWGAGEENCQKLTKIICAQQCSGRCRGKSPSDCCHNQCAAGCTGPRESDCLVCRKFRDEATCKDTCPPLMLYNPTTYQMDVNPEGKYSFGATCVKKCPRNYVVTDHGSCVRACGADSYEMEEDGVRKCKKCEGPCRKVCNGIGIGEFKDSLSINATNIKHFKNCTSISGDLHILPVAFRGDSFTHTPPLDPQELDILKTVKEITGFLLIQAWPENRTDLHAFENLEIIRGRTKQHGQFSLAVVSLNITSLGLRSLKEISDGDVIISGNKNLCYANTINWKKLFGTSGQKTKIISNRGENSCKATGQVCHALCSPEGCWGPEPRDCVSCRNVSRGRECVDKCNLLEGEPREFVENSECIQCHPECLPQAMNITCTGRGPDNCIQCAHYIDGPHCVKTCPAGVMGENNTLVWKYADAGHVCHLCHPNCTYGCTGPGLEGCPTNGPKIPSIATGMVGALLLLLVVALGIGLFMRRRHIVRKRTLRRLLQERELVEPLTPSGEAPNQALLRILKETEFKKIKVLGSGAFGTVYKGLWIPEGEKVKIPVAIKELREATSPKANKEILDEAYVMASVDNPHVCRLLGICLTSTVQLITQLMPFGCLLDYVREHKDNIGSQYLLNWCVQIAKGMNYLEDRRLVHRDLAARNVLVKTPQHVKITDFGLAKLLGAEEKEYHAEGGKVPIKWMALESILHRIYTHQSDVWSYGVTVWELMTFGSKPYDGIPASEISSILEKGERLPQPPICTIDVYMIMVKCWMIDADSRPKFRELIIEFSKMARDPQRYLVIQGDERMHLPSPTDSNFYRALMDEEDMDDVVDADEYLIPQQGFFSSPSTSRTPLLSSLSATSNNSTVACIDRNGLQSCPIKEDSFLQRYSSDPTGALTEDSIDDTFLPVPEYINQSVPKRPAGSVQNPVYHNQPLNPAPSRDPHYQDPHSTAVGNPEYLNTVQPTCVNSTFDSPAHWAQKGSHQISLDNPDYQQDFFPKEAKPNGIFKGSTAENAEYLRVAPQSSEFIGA

Row | IC50 [nM] | Compound
1 | 950 | Cc1cccc(Nc2ncnc3ccc(/N=N/N(C)CCN(CCN4CCOCC4)CCN(C)/N=N/c4ccc5ncnc(Nc6cccc(C)c6)c5c4)cc23)c1 [Bis-quinazolinotriazene, 5a]
2 | 120 | CN(CCN(CCN1CCOCC1)CCN(C)/N=N/c1ccc2ncnc(Nc3cccc(Br)c3)c2c1)/N=N/c1ccc2ncnc(Nc3cccc(Br)c3)c2c1 [Bis-quinazolinotriazene, 5b]
3 | 150 | CN(CCN(CCN1CCOCC1)CCN(C)/N=N/c1ccc2ncnc(Nc3cccc(Cl)c3)c2c1)/N=N/c1ccc2ncnc(Nc3cccc(Cl)c3)c2c1 [Bis-quinazolinotriazene, 5c]

— BindingDB's records for doi:10.1111/j.1747-0285.2008.00638.x (Mcgill University/Royal Victoria Hospital, 2008)
